≈ marks a conversion by molar mass, not a printed value. Entries after “also recorded” stand apart in the source; their conditions may differ.
System: herpes simplex virus Type I (HSV I)
Assay: Inhibition of virus replication (plaque assay, BHK-21 cells)
Assay type: cell-based, Type 1, Troisbel strain
Details: not given
Procedure: 1. Mono-layers of baby hamster kidney cells (BHK-21) are prepared in Petri dishes containing ETC medium (Eagle's minimal essential medium +10% tryptose phosphate broth +10% new born calf serum).
2. After incubation the medium is poured off to leave the layer of cells attached to the Petri dish. A solution containing virus, specifically herpes simplex virus Type I (HSV I) for example, in ETC medium is then added to the dish and incubated with intermittent rocking for one hour to allow the virus to adsorb to the cells of the mono-layer. Unadsorbed virus is then removed by pouring off the virus-containing medium and washing twice with new sterile medium. Then new medium is added to each Petri dish. At this stage various concentrations of drug can be added to the medium.
3. […] First the dishes are frozen to -70° C. and thawed to disrupt the mono-layer and break up the cells. Then the medium and the disrupted cells are transferred to bijou bottles and sonicated to break down the cells completely and to release all the virus particles the cells contain. The sonicated medium is then diluted with fresh sterile ETC medium to give concentrations of the original Petri dish fluid of 10^-2, 10^-4, 10^-6 and 10^-8.
4. The number of virus particles (plaque forming units) in the dilutions is then assayed. A standard number of BHK cells (usually 8×10^6) is added to 2 ml of the diluted solutions and incubated for one hour, with cautious, gentle shaking, and 8 ml of Eagle's minimal essential medium +2% new born calf serum + carboxymethyl cellulose is then added to the cell suspension. This medium has gelling properties which prevent spreading of the virus through the medium and which encourage the formation of discrete plaques in cell mono-layers. The medium from each dilution is then dispensed into Petri dishes and incubated for two to three days.
5. The number of plaques formed is then counted and the amount of active virus expressed as the number of plaque forming units (pfus) as follows. The medium is poured off and the cell mono-layer is fixed using 10% formol saline and stained with dilute carbol fuchsin. The number of plaques in each Petri dish is counted. Based on the dilutions, the number of plaque forming virus particles in the original solutions is calculated.
In the Table, the figures are the concentration of viral particles in pfu/ml present in the cells + medium at the end of the replication stage (3).

Compound | Inhibition of herpes virus replication (in words)
CCCCC/C=C\C/C=C\CCCCCCCC(=O)OC[C@H]1O[C@@H](n2cc(C)c(=O)[nH]c2=O)C[C@@H]1N=[N+]=[N-] [AK 2] | to inhibit its replication
CCCCC/C=C\C/C=C\CCCCCCCC(=O)Nc1nc2c(ncn2COCCOC(=O)CCCCCCC/C=C\C/C=C\CCCCC)c(=O)[nH]1 [AK 11] | very effective
CCCCC/C=C\C/C=C\CCCCCCCC(=O)O [LA, linoleic acid, reference compound] | completely unable to inhibit viral replication

Same assay, conditions: Human alphaherpesvirus 1, BHK-21, 24 h; 1 mg/l; read-out: Inhibition of viral replication (log10 reduction in virus titre)

Compound | log reduction at 1 µg/mL
CCCCC/C=C\C/C=C\CCCCCCCC(=O)Nc1nc2c(ncn2COCCOC(=O)CCCCCCC/C=C\C/C=C\CCCCC)c(=O)[nH]1 [AK 11] | 1.69

Same assay, conditions: Human alphaherpesvirus 1, BHK-21, 24 h; 5 mg/l; read-out: Inhibition of viral replication (log10 reduction in virus titre)

Compound | log reduction at 5 µg/mL
CCCCC/C=C\C/C=C\CCCCCCCC(=O)Nc1nc2c(ncn2COCCOC(=O)CCCCCCC/C=C\C/C=C\CCCCC)c(=O)[nH]1 [AK 11] | 2.46

Same assay, conditions: up to 100 mg/l

Compound | Inhibition of viral replication (in words)
CCCCC/C=C\C/C=C\CCCCCCCC(=O)OC[C@H]1O[C@@H](n2cc(C)c(=O)[nH]c2=O)C[C@@H]1N=[N+]=[N-] [AK 2] | no inhibition

System: HTLV-IIIB
Assay: Anti-HIV activity assay, HTLV-IIIB (MT-4 cells, MTT method)
Assay type: cell-based
Details: CD50/ED50, HTLV-IIIB
Procedure: (§1) Results in relation to HIV virus were obtained by the method of Pauwels et al, Journal of Virological Methods 20, 309 to 321 (1988), as follows:
(§2) MT-4 cells (2.5×10^4 /well) were infected with HIV (100 CCID50) and incubated in the presence of varying concentrations of the test compounds (added immediately after virus infection). After five days incubation at 37° C. in a CO2 incubator, the number of viable cells was assessed by the MTT (tetrazolium) method. Anti-viral activity and cytotoxicity of the compounds are expressed as ED50 (50% effective dose) and CD50 (50% cytotoxic dose), respectively. SI (selectivity index=CD50 /ED50.
(§3) These are given in Table 8 and Table 9 below in relation to HTLV-IIIB and LAV-2ROD viruses.

Compound | Selectivity index (SI)
CCCCC/C=C\C/C=C\CCCCCCCC(=O)OC[C@H]1O[C@@H](n2cc(C)c(=O)[nH]c2=O)C[C@@H]1N=[N+]=[N-] [AK 2] | 26008
CCCCC/C=C\C/C=C\CCCCCCCC(=O)Nc1nc2c(ncn2COCCOC(=O)CCCCCCC/C=C\C/C=C\CCCCC)c(=O)[nH]1 [AK 11] | < 1

Same assay, conditions: Human immunodeficiency virus 1, MT4, 120 h; MT-4 cells, five days, HTLV-IIIB; read-out: ED50 (50% effective dose)

Compound | EC50 [µg/mL]
CCCCC/C=C\C/C=C\CCCCCCCC(=O)OC[C@H]1O[C@@H](n2cc(C)c(=O)[nH]c2=O)C[C@@H]1N=[N+]=[N-] [AK 2] | 0.000365 (≈ 0.000689 µM)
CCCCC/C=C\C/C=C\CCCCCCCC(=O)Nc1nc2c(ncn2COCCOC(=O)CCCCCCC/C=C\C/C=C\CCCCC)c(=O)[nH]1 [AK 11] | > 40

System: not given
Assay: not given
Details: not given

Compound | % in chloroform phase (partition co-efficients, water/chloroform) [%]
CCCCC/C=C\C/C=C\CCCCCCCC(=O)OC[C@H]1O[C@@H](n2cc(C)c(=O)[nH]c2=O)C[C@@H]1N=[N+]=[N-] [AK 2] | > 99
CCCCC/C=C\C/C=C\CCCCCCCC(=O)Nc1nc2c(ncn2COCCOC(=O)CCCCCCC/C=C\C/C=C\CCCCC)c(=O)[nH]1 [AK 11] | > 99

System: not listed separately
Assay: in vitro
Assay type: cell-based
Details: human, mt-4 cells, CD50 (50% cytotoxic dose)
Procedure: as §1, §2

Compound | CC50 at 120 h [µg/mL]
CCCCC/C=C\C/C=C\CCCCCCCC(=O)OC[C@H]1O[C@@H](n2cc(C)c(=O)[nH]c2=O)C[C@@H]1N=[N+]=[N-] [AK 2] | 9.49 (≈ 17.9 µM)
CCCCC/C=C\C/C=C\CCCCCCCC(=O)Nc1nc2c(ncn2COCCOC(=O)CCCCCCC/C=C\C/C=C\CCCCC)c(=O)[nH]1 [AK 11] | 13.1 (≈ 17.5 µM)

System: MT-4 cells
Assay: in vitro
Assay type: cell-based
Details: human, 120 h
Procedure: as §1, §2

Compound | CD50 (50% cytotoxic dose) [µg/mL]
CCCCC/C=C\C/C=C\CCCCCCCC(=O)OC[C@H]1O[C@@H](n2cc(C)c(=O)[nH]c2=O)C[C@@H]1N=[N+]=[N-] [AK 2] | 5.9512
CCCCC/C=C\C/C=C\CCCCCCCC(=O)Nc1nc2c(ncn2COCCOC(=O)CCCCCCC/C=C\C/C=C\CCCCC)c(=O)[nH]1 [AK 11] | 10.1674

System: herpes simplex virus Type I
Assay: Inactivation of virus (30 minutes incubation, plaque assay)
Assay type: cell-based, Type 1, Troisbel strain
Details: not given
Procedure: 1. A virus solution containing 2×10^5 pfu/ml is prepared in phosphate buffered saline (Dulbecco's A).
2. The compound to be tested is made up in Dulbecco's medium A in a suitable range of dilutions.
3. Equal volumes of the virus and drug solution are mixed together. Control solutions without drug are also used.
4. The virus and drug are incubated for an appropriate period of time, in this example, thirty minutes.
5. The numbers of active viral particles in the solution are assayed as in items 4 and 5 under A.
The results are shown below (Table 6). In the Table, the figures are concentrations of viral particles present after incubation of the virus for 30 minutes with solutions of the drugs.

Compound | Virucidal activity / inactivation of herpes virus (in words)
CCCCC/C=C\C/C=C\CCCCCCCC(=O)OC[C@H]1O[C@@H](n2cc(C)c(=O)[nH]c2=O)C[C@@H]1N=[N+]=[N-] [AK 2] | virucidal
CCCCC/C=C\C/C=C\CCCCCCCC(=O)Nc1nc2c(ncn2COCCOC(=O)CCCCCCC/C=C\C/C=C\CCCCC)c(=O)[nH]1 [AK 11] | virucidal; also recorded: very effective
CCCCC/C=C\C/C=C\CCCCCCCC(=O)O [LA, linoleic acid, reference compound] | active at concentrations comparable to GLA; also recorded: same effect in inactivating the herpes virus

Same assay, conditions: Human alphaherpesvirus 1, 0.5 h; 1 mg/l; read-out: Inactivation of virus (log10 reduction in virus titre)

Compound | log reduction at 1 µg/mL
CCCCC/C=C\C/C=C\CCCCCCCC(=O)OC[C@H]1O[C@@H](n2cc(C)c(=O)[nH]c2=O)C[C@@H]1N=[N+]=[N-] [AK 2] | 2.2
CCCCC/C=C\C/C=C\CCCCCCCC(=O)Nc1nc2c(ncn2COCCOC(=O)CCCCCCC/C=C\C/C=C\CCCCC)c(=O)[nH]1 [AK 11] | 0.15

Same assay, conditions: Human alphaherpesvirus 1, 0.5 h; 5 mg/l; read-out: Inactivation of virus (log10 reduction in virus titre)

Compound | log reduction at 5 µg/mL
CCCCC/C=C\C/C=C\CCCCCCCC(=O)OC[C@H]1O[C@@H](n2cc(C)c(=O)[nH]c2=O)C[C@@H]1N=[N+]=[N-] [AK 2] | 2.8
CCCCC/C=C\C/C=C\CCCCCCCC(=O)Nc1nc2c(ncn2COCCOC(=O)CCCCCCC/C=C\C/C=C\CCCCC)c(=O)[nH]1 [AK 11] | 1.55

Same assay, conditions: listed as AZT-LA

Compound | Virucidal activity / inactivation of herpes virus (in words)
CCCCC/C=C\C/C=C\CCCCCCCC(=O)OC[C@H]1O[C@@H](n2cc(C)c(=O)[nH]c2=O)C[C@@H]1N=[N+]=[N-] [AK 2] | able both to inactivate the herpes virus

System: LAV-2ROD
Assay: Anti-HIV activity assay, LAV-2ROD (MT-4 cells, MTT method)
Assay type: cell-based
Details: CD50/ED50, LAV-2ROD
Procedure: as §1, §2, §3

Compound | Selectivity index (SI)
CCCCC/C=C\C/C=C\CCCCCCCC(=O)OC[C@H]1O[C@@H](n2cc(C)c(=O)[nH]c2=O)C[C@@H]1N=[N+]=[N-] [AK 2] | 7999
CCCCC/C=C\C/C=C\CCCCCCCC(=O)Nc1nc2c(ncn2COCCOC(=O)CCCCCCC/C=C\C/C=C\CCCCC)c(=O)[nH]1 [AK 11] | < 1

Same assay, conditions: MT4, 120 h; MT-4 cells, five days, LAV-2ROD; read-out: ED50 (50% effective dose)

Compound | EC50 [µg/mL]
CCCCC/C=C\C/C=C\CCCCCCCC(=O)OC[C@H]1O[C@@H](n2cc(C)c(=O)[nH]c2=O)C[C@@H]1N=[N+]=[N-] [AK 2] | 0.000744 (≈ 0.0014 µM)
CCCCC/C=C\C/C=C\CCCCCCCC(=O)Nc1nc2c(ncn2COCCOC(=O)CCCCCCC/C=C\C/C=C\CCCCC)c(=O)[nH]1 [AK 11] | > 40

— US5216142A, “Anti-virals” (Efamol Holdings plc, priority 1989, dated 1993)
